From publication PMC5599605, “Production and Characteristics of a Novel Xylose- and Alkali-tolerant GH 43 β-xylosidase from Penicillium oxalicum for Promoting Hemicellulose Degradation” (Scientific Reports, 2017)

How the values were obtained:
Xyl43 [1] = biological target: T1, Xyl43 (Penicillium oxalicum, UniProt S7ZRR2); assay: pNPX hydrolysis, Dixon plot; type: biochemical; details: substrate pNPX 0.5 and 1 mg/ml, pH 7.0, 50 °C; end product; described as uncompetitive; Table 1 prints 28.9
T1 construct: gene PDE_06306; full-length, 348 residues, no native signal peptide; alpha-factor secretion signal, C-terminal His6 tag kept; Pichia pastoris X-33 (pPICZalphaA)

Xyl43 [2] = biological target: T1, Xyl43; assay: pNPX hydrolysis, residual activity; type: biochemical; details: pNPX 1 mg/ml, pH 7.0, 50 °C, 30 min; D or L not stated
[3] = substrate: O=[N+]([O-])c1ccc(O[C@@H]2OC[C@@H](O)[C@H](O)[C@H]2O)cc1; assay: p-nitrophenol release, Lineweaver-Burk plot; type: biochemical, Penicillium oxalicum; details: pH 7.0, 50 °C, 5 min, no xylose

Question: For OC1OC[C@@H](O)[C@H](O)[C@H]1O (stereo partly drawn) [xylose], which Ki (Xyl43 [1]) is on record?
Answer: The Ki was 28.1 mM.

Question: Which “% of initial activity at 20 mM” value (Xyl43 [2]) does the source give for OC1OC[C@H](O)[C@H](O)[C@H]1O (stereo partly drawn) [arabinose] here?
Answer: The value was 88.7%.

B1: Xyl43 (Penicillium oxalicum 114-2) (protein)
chain: MSSSTSSAPRPDPKPLVTHLYTADPSAHVFNNKIYIYPSHDRETDIAFNDNGDQYDMTDYHVFSMDAIDGPVTDSGVVLSAADVPWVSKQMWAPDAATKNGKYYLFFPARDHEGIFRIGVAVSDSPMGPFAPEKSYIPGSYSIDPAVFVDTDDSAYLYFGGIWGGQLQCWERADGSASASADPQMNGLVFNKSKSGPQEPSGAGVPALCPRVGQLSDDMLTFVSPPRELQILAPETGEPLAADDHERRFFEAAWMHKYKGKYYFSYSTGDSHYLVYATGDSPWGPFTYQGRILEPVLGWTTHHSIVEFQGKWYLFYHDCELSKGVDHLRSVKVREIVYDEEDKIHLA
notes: full-length, 348 residues, no native signal peptide; alpha-factor secretion signal, C-terminal His6 tag kept; Pichia pastoris X-33 (pPICZalphaA)
Question: For B1, which Km [3] is on record?
Answer: The Km was 4.05 mM.
